Holding throughout (assay type): cell-based
One data set deals with T1, Tau (Homo sapiens, UniProt P10636).
T1 construct: BiFC fluorescent-protein fragments (two complementary halves on two tau copies); expressed in transfected cells
Briefly: Tau aggregation inhibition in Tau-BiFC cell model (Forskolin-induced). The procedure: (§1) To screen for new tau aggregation inhibitors, a Tau-BiFC cell model that facilitates observation of tau oligomer formation in living cells was used. Tau-BiFC cells were dispensed into a 384-well plate, and the next day, the compounds prepared according to Examples 1 to 46 were treated at concentrations of 1, 3, and 10 µM, respectively, together with Forskolin (treatment concentration 30 µM), which is a compound that induces tau aggregation by activating the tau phosphorylation enzyme PKA. After 48 hours, nuclei within cells were stained using Hoechst (treatment concentration 2 µg/mL), and BiFC fluorescence intensity was automatically quantified using Operetta (Perkin Elmer) to count the stained nuclei in each well from the entire plate. The group treated only with Forskolin, which induces tau aggregation, was set as the reference point with 100% tau aggregation state, and the effect was confirmed by the formula "BiFC fluorescence intensity by the compounds synthesized according to the Examples of the disclosure/(fluorescence intensity of the control group treated only with Forskolin that induces tau aggregation - fluorescence intensity of the untreated control group) × 100". In addition, the degree of cytotoxicity induced by the newly synthesized compounds was also calculated using the formula "(number of stained nuclei in the compound-treated group/number of stained nuclei in the Forskolin-treated group) × 100", with the group treated only with Forskolin as the reference point at 100% viability. From the treatment results, substances that inhibit intracellular tau aggregation were identified through screening from a series of candidates based on the criteria of 70% or more tau aggregation inhibition and 100% cell viability at a compound treatment concentration of 10 µM.
(§2) To confirm the tau aggregation inhibitory effect according to the concentration of the compounds screened in Experimental Example 1, the screened compounds were treated to Tau-BiFC cells at concentrations of 0.03, 0.1, 0.3, 1, 3, 10, and 30 µM, respectively, together with Forskolin (treatment concentration 30 µM), which is a tau aggregation-inducing substance. After 48 hours, cell images were examined to analyze the tau aggregation reaction and degree of cytotoxicity. The IC50 and toxicity of the compounds were analyzed by nonlinear regression analysis using Prism software (GraphPad). The calculated results for representative compounds are shown in Table 3 below: Tau aggregation inhibitory effect and cell viability of novel compounds.

The subject of the next data set is Tau-BiFC cells. Briefly: Cell viability (stained nuclei count) in Tau-BiFC cells. The procedure:
as §1, §2

Another data set relates to TDP-43 BiFC cells. Kind of data set: Cell viability (stained nuclei count) in TDP-43-BiFC cells. The settings on record: Forskolin-only group = 100%. The procedure: (§3) To screen for new TDP-43 aggregation inhibitors, a TDP-43-BiFC cell model that facilitates observation of TDP-43 aggregate formation in living cells was used. Specifically, TDP-43-BiFC cells were dispensed into a 384-well plate, and the next day, the compounds prepared according to Examples 1 to 46 were treated at concentrations of 3 and 10 µM, respectively, together with Forskolin (treatment concentration 30 µM), which is a compound that induces TDP-43 aggregation by activating the phosphorylation enzyme PKA. After 48 hours, nuclei within cells were stained using Hoechst (treatment concentration 1 µg/mL), and BiFC fluorescence intensity was automatically quantified using Operetta (PerkinElmer) to count the stained nuclei in each well from the entire plate. The group treated only with Forskolin, which induces TDP-43 aggregation, was set as the reference point with 100% TDP-43 aggregation state, and the effect was confirmed by the formula "(BiFC fluorescence intensity by the compounds synthesized according to the Examples of the disclosure - fluorescence intensity of the untreated control group)/(fluorescence intensity of the control group treated only with Forskolin that induces TDP-43 aggregation - fluorescence intensity of the untreated control group) × 100". In addition, the degree of cytotoxicity induced by the newly synthesized compounds was also calculated using the formula "(number of stained nuclei in the compound-treated group/number of stained nuclei in the Forskolin-treated group) × 100", with the group treated only with Forskolin as the reference point at 100% viability. From the treatment results, substances that inhibit intracellular TDP-43 aggregation were identified through screening from a series of candidates based on the criteria of 80% or more TDP-43 aggregation inhibition and 60% cell viability at a compound treatment concentration of 3 µM.
(§4) Furthermore, to confirm the TDP-43 aggregation inhibitory effect according to the concentration of the compounds screened in Experimental Example 3, the screened compounds were treated to […] at concentrations of 0.003, 0.01, 0.03, 0.1, 0.3, 1, 3, and 10 µM, respectively, together with Forskolin (treatment concentration 30 µM), which is a TDP-43 aggregation-inducing substance. After 48 hours, cell images were examined to analyze the TDP-43 aggregation reaction and degree of cytotoxicity. The IC50 and toxicity of the compounds were analyzed by nonlinear regression analysis using Prism software (GraphPad). The calculated results for representative compounds are shown in Table 4 below: TDP-43 protein aggregation inhibitory effect and cell viability of novel compounds.

Another data set addresses T2, TDP-43 protein (Homo sapiens, UniProt Q13148).
T2 construct: BiFC fluorescent-protein fragments (two complementary halves); expressed in transfected cells
Kind of data set: TDP-43 aggregation inhibition in TDP-43-BiFC cell model (Forskolin-induced). The settings on record: for inhibition at 3 µM: read-out: TDP-43 protein aggregation inhibitory effect: Aggregation inhibitory effect (%) (@3 uM). On the procedure:
as §3, §4

Where [1] appears, read: @10 µM, Tau-BiFC cell line, Forskolin-only group = 100%.
Setting [2] is: Tau-BiFC cell line, Forskolin 30 µM, 48 hours, 0.03-30 µM, read-out: Tau aggregation inhibitory effect IC50.
Setting [3] is: @3 uM, TDP-43 BiFC cells, Forskolin 30 µM, 48 hours.

SMILES strings stand for the structures. Like-named read-outs stand apart in the source and are kept apart here.

Usually IC50 stands for the concentration at which inhibition is half-maximal.

T2 sequence (Q13148 whole entry, the tested form may be a part): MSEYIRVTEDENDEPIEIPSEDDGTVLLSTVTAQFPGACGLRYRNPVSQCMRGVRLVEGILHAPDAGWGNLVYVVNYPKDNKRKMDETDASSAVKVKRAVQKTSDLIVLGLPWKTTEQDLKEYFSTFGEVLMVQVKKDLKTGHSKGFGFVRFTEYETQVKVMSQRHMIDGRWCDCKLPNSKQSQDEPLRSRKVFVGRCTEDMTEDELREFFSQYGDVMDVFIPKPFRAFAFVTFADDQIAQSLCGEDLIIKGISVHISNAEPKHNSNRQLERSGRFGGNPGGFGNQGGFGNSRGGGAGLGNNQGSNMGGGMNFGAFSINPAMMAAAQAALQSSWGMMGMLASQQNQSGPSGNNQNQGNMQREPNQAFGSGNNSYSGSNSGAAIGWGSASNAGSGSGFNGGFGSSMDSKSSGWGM
T1 sequence (P10636 1-441 isoform P10636-8): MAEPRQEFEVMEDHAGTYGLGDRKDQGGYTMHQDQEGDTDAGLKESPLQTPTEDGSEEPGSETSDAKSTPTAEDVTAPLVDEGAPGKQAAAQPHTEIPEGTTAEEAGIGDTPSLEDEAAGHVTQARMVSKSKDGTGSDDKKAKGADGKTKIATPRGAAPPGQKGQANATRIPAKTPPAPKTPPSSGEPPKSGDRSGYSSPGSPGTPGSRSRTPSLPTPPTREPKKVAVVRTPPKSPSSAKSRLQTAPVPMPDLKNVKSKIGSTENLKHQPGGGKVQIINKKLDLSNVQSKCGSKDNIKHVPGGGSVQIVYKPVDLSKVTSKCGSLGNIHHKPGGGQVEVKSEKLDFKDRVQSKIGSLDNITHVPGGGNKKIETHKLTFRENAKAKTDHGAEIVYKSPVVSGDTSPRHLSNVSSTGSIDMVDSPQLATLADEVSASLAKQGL

On to `N#CC(C#N)=NNc1ccc2nc(-c3ccccc3)sc2c1` [Comparative compound 2, N-(2-phenylbenzo[d]thiazol-6-yl) carbonohydrazonoyl dicyanide, reference compound], for which the IC50 against Tau came to 2800 nM. Also, the “Cell viability (% @10µM)” value with Tau-BiFC cells (setting [1]) is recorded as 65%.

Take `N#CC(C#N)=NNc1ccc2nc(N3CC[C@H](F)C3)oc2c1` [Compound 43, (S)-(2-(3-fluoropyrrolidin-1-yl)benzo[d]oxazol-6-yl)carbonohydrazonoyl dicyanide]: on Tau (read-out: Tau aggregation inhibitory effect IC50, Tau-BiFC cell line, Forskolin 30 µM, 48 hours, 0.03-30 µM), the IC50 came to 28 nM. In the data set with Tau-BiFC cells (setting [1]), the “Cell viability (% @10µM)” value was determined as 100%. Further, the “Cell viability (%) (@ 3 uM)” value in the data set on TDP-43 BiFC cells was determined as 89.0%. The inhibition at 3 µM at TDP-43 protein is 92.9%.

Regarding `C[C@@H]1CN(c2nc3ccc(NN=C(C#N)C#N)cc3s2)C[C@H](C)N1C(=O)OC(C)(C)C` [Compound 29, (2R,6S)-tert-butyl 4-(6-(2-(dicyanomethylene)hydrazinyl)benzo[d]thiazol-2-yl)-2,6-dimethylpiperazine-1-carboxylate], the IC50 on Tau (setting [2]) came out at 36 nM. In addition, in the data set on Tau-BiFC cells (48 h, 10 µM), the “Cell viability (% @10µM)” value is 97%. Besides, the “Cell viability (%) (@ 3 uM)” value in the data set with TDP-43 BiFC cells is reported as 96.2%. In addition, the inhibition at 3 µM at TDP-43 protein (setting [3]) is 47.2%.

In the case of `CC(=O)N(N=C(C#N)C#N)c1ccc2nc(N3CCOCC3)sc2c1` [Compound 37, acetyl(2-morpholinobenzo[d]thiazol-6-yl)carbonohydrazonoyl dicyanide], the values for the IC50 on Tau and at TDP-43 protein were 24 nM and 0.7 nM, respectively. In the data set with Tau-BiFC cells (setting [1]), the “Cell viability (% @10µM)” value was found to be 85%. The “Cell viability (%) (@ 3 uM)” value with TDP-43 BiFC cells was 61.3%. In addition, the inhibition at 3 µM at TDP-43 protein was 91.2%.

Compound `N#CC(C#N)=NNc1ccc2nc(N3CCCCC3)oc2c1` [Compound 46, (2-(piperidin-1-yl)benzo[d]oxazol-6-yl)carbonohydrazonoyl dicyanide] displayed an IC50 on Tau of 16 nM. Moreover, the “Cell viability (% @10µM)” value in the data set on Tau-BiFC cells (setting [1]) was determined as 100%. Also, in the data set with TDP-43 BiFC cells, the “Cell viability (%) (@ 3 uM)” value is given as 73.6%. On TDP-43 protein, it took 320 nM to reach half-maximal inhibition (IC50) and the inhibition at 3 µM amounted to 81.4%.

With `N#CC(C#N)=NNc1cc2oc(N3CCOCC3)nc2cc1Cl` [Compound 19, (5-chloro-2-morpholinobenzo[d]oxazol-6-yl)carbonohydrazonoyl dicyanide], the IC50 at Tau came to 453 nM. The “Cell viability (% @10µM)” value in the data set with Tau-BiFC cells (setting [1]) is listed as 100%. Moreover, the “Cell viability (%) (@ 3 uM)” value in the data set on TDP-43 BiFC cells came to 97.0%. Moreover, the inhibition at 3 µM on TDP-43 protein amounted to 92.6%.

Consider `N#CC(C#N)=NNc1ccc2nc(-c3cccs3)sc2c1` [Comparative compound 5, N-(2-(thiophen-2-yl)benzo[d]thiazol-6-yl) carbonohydrazonoyl dicyanide, reference compound], for which, on Tau, the IC50 came out at 7300 nM. Moreover, the “Cell viability (% @10µM)” value with Tau-BiFC cells (setting [1]) is given as 70%.

Take `N#CC(C#N)=NNc1ccc2nc(N3CCCC(F)C3)oc2c1` (stereo not shown) [Compound 44, (2-(3-fluoropiperidin-1-yl)benzo[d]oxazol-6-yl)carbonohydrazonoyl dicyanide]: the IC50 against Tau came to 12 nM. In addition, the “Cell viability (% @10µM)” value in the data set on Tau-BiFC cells (setting [1]) is on record as 100%. For the same compound, the “Cell viability (%) (@ 3 uM)” value in the data set with TDP-43 BiFC cells is given as 85.0%. For the same compound, on TDP-43 protein, the inhibition at 3 µM came out at 71.1%.

Consider `CN(C)c1ccc(-c2nc3ccc(NN=C(C#N)C#N)cc3s2)cc1` [Comparative compound 4, N-(2-(4-(dimethylamino)phenyl)benzo[d]thiazol-6-yl) carbonohydrazonoyl dicyanide, reference compound], for which, at Tau (setting [2]), the IC50 worked out at 3100 nM. For the same compound, the “Cell viability (% @10µM)” value in the data set on Tau-BiFC cells (setting [1]) turned out to be 80%.

Consider `N#CC(C#N)=NNc1ccc2nc(N3CCCC3)oc2c1` [Compound 45, (2-(pyrrolidin-1-yl)benzo[d]oxazol-6-yl)carbonohydrazonoyl dicyanide], for which, on Tau, the IC50 was 4 nM. Besides, the “Cell viability (% @10µM)” value in the data set with Tau-BiFC cells (setting [1]) is on record as 98%. Also, in the data set on TDP-43 BiFC cells, the “Cell viability (%) (@ 3 uM)” value worked out at 73.6%. For the same compound, on TDP-43 protein, 371 nM corresponded to half-maximal inhibition (IC50) and the inhibition at 3 µM came to 81.1%.

For the compound `CC(C)(C)OC(=O)N1CCN(c2nc3ccc(NN=C(C#N)C#N)cc3s2)CC1` [Compound 22, tert-butyl 4-(6-(2-(dicyanomethylene)hydrazinyl)benzo[d]thiazol-2-yl)piperazine-1-carboxylate], the “Cell viability (%) (@ 3 uM)” value in the data set on TDP-43 BiFC cells worked out at 130.7%. Also, at TDP-43 protein (setting [3]), the inhibition at 3 µM is 66.5%.

For `N#CC(C#N)=NNc1ccc2nc(-c3ccc(F)cc3)sc2c1` [Comparative compound 3, N-(2-(4-fluorophenyl)benzo[d]thiazol-6-yl) carbonohydrazonoyl dicyanide, reference compound], the IC50 at Tau stood at 3200 nM. The “Cell viability (% @10µM)” value in the data set on Tau-BiFC cells (setting [1]) was 50%.

At Tau, `N#CC(C#N)=NNc1ccc2nc(N3CCC[C@H](F)C3)oc2c1` [Compound 42, (S)-(2-(3-fluoropiperidin-1-yl)benzo[d]oxazol-6-yl)carbonohydrazonoyl dicyanide] returned an IC50 of 20 nM. The “Cell viability (% @10µM)” value in the data set with Tau-BiFC cells (setting [1]) came out at 100%. Moreover, the “Cell viability (%) (@ 3 uM)” value in the data set with TDP-43 BiFC cells came out at 62.4%. Moreover, the inhibition at 3 µM on TDP-43 protein was 64.7%.

`CN(N=C(C#N)C#N)c1ccc2nc(N3C4CCC3COC4)sc2c1` [Compound 36, (2-(3-oxa-8-azabicyclo[3.2.1]octan-8-yl)benzo[d]thiazol-6-yl)(methyl)carbonohydrazonoyl dicyanide] came in with an IC50 at Tau of 136 nM. For the same compound, in the data set with Tau-BiFC cells (setting [1]), the “Cell viability (% @10µM)” value worked out at 97%.

On to `N#CC(C#N)=NNc1ccc2nc(N3CCC[C@@H](F)C3)oc2c1` [Compound 47, (R)-N-(2-(3-fluoropiperidin-1-yl)benzo[d]oxazol-6-yl)carbonohydrazonoyl dicyanide], for which the IC50 at Tau stood at 117 nM. Moreover, the “Cell viability (% @10µM)” value in the data set on Tau-BiFC cells (setting [1]) came to 100%.

Values taken from EP4737445A1, “NOVEL SATURATED HETEROCYCLE-SUBSTITUTED HETEROARYL-CARBONOHYDRAZONOYL DICYANIDE COMPOUND AND USE THEREOF” (Korea Institute of Science and Technology, priority 2023, dated 2025).
